Laboratory results taken from US20120107854A1, “REAGENT FOR MEASUREMENT OF CHOLINESTERASE ACTIVITY” (NATIONAL INSTITUTE OF RADIOLOGICAL SCIENCES, priority 2009, published 2012).

Key:
[1] = molecular target: purified human butyrylcholinesterase (Homo sapiens, UniProt P06276); assay: Hydrolysis rate with purified human butyrylcholinesterase by the Ellman method; assay type: biochemical; settings: for hydrolysis rate with butyrylcholinesterase compared with spontaneous hydrolysis in the buffer solution: comparison of Table 1 values; for hydrolysis rate with Butyrylcholinesterase (change in absorbance per minute): phosphate buffer 0.1 M pH 7.4, 0.1% Tween 20, absorbance at 412 nm, measured three times, average ± standard deviation
Sequence of purified human butyrylcholinesterase (P06276 29-602): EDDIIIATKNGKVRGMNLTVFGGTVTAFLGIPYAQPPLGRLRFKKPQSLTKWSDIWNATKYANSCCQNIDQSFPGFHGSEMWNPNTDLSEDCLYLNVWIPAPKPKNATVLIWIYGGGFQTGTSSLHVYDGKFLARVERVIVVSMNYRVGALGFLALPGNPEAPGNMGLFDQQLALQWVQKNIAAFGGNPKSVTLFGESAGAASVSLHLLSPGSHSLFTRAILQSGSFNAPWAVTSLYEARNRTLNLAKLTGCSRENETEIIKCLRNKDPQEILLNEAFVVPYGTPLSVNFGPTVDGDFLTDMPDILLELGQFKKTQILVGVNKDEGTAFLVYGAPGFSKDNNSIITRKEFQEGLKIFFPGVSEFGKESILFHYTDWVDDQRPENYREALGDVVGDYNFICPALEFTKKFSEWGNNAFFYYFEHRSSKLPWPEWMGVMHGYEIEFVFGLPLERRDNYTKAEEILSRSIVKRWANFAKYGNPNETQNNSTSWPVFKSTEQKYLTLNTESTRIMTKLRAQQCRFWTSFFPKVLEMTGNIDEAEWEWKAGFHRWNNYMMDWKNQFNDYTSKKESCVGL
Procedure: (§1) To investigate the hydrolysis rate and specificity of each of (1a) and (2a), the hydrolysis rate in a solution of each of purified human acetylcholinesterase and purified human butyrylcholinesterase was measured by the Ellman method, and was compared with those of acetyl thiocholine and acetyl-[…]. To 3 ml of a solution of each enzyme whose concentration was adjusted with a phosphate buffer (0.1 M, pH 7.4) containing 0.1% of Tween 20, 0.1 ml of a solution (5 mM) of 5,5′-dithio-bis(2-nitrobenzoic acid) was added. To these mixtures, the substrates were respectively added in an amount of 0.02 ml (75 mM), and the absorbance (mAbs) at a wavelength of 412 nm was measured.
(§2) The values in the Table represent the changes in absorbance per minute measured three times in the form of average value±standard deviation.

[2] = molecular target: purified human acetylcholinesterase (Homo sapiens, UniProt P22303); assay type: biochemical; settings: for specificity for acetylcholinesterase: acetylcholinesterase versus butyrylcholinesterase hydrolysis; for reaction order of the hydrolysis rate (time dependence): at the substrate concentration, change with time showed good linearity; for reaction order of the hydrolysis rate (time dependence) / change in absorbance at 412 nm with time: FIG. 1; for substrate quality for acetylcholinesterase: hydrolysis rate lower than acetyl thiocholine and acetyl-δ methyl-thiocholine; for change in absorbance at 412 nm with time: in 120 minutes, acetylcholinesterase; for hydrolysis rate with Acetylcholinesterase (change in absorbance per minute): phosphate buffer 0.1 M pH 7.4, 0.1% Tween 20, absorbance at 412 nm, measured three times, average ± standard deviation
Sequence of purified human acetylcholinesterase (P22303 32-614): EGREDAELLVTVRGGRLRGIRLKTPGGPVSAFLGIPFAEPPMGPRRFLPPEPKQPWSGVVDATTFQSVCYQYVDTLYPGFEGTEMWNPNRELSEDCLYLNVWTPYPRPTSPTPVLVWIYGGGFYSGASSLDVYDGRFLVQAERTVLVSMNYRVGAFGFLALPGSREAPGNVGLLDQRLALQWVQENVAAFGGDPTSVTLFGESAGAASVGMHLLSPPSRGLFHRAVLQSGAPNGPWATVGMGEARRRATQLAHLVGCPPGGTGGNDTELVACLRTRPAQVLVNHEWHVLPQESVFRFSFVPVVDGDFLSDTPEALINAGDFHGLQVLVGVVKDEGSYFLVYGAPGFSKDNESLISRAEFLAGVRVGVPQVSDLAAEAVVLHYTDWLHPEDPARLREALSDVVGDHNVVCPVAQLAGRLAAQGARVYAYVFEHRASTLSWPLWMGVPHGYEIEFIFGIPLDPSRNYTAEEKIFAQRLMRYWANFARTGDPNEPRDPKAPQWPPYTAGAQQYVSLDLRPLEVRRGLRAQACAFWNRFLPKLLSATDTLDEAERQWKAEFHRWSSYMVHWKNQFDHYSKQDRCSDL
Procedure: as §1, §2
The values represent the absorbance (Abs) measured three times in the form of average value±standard deviation.

[3] = Spontaneous hydrolysis rate in the buffer solution (Ellman method); assay type: physicochemical; settings: buffer solution without enzyme; absorbance at 412 nm; measured three times, average ± standard deviation

CC(=O)SCC1CC[N+](C)(C)CC1 [Compound (2a), 1,1-dimethylpiperidin-4-ylmethyl acetyl sulfide]
hydrolysis rate with butyrylcholinesterase compared with spontaneous hydrolysis in the buffer solution [1]: did not show any significant difference | hydrolysis rate with Butyrylcholinesterase (change in absorbance per minute) [1]: 0.15 ± 0.0077 ΔmAbs/minute | specificity for acetylcholinesterase [2]: extremely highly specific | reaction order of the hydrolysis rate (time dependence) [2]: consistent with the zero-order reaction | substrate quality for acetylcholinesterase [2]: good substrates for acetylcholinesterase | change in absorbance at 412 nm with time [2]: approximately 0.4 Abs | hydrolysis rate with Acetylcholinesterase (change in absorbance per minute) [2]: 3.1 ± 0.15 ΔmAbs/minute | spontaneous hydrolysis rate (change in absorbance per minute) [3]: 0.13 ± 0.027 ΔmAbs/minute

CC(=O)SC(C)C[N+](C)(C)C (stereo not drawn) [Acetyl-β methyl-thiocholine, reference compound]
hydrolysis rate with butyrylcholinesterase compared with spontaneous hydrolysis in the buffer solution [1]: significantly higher | hydrolysis rate with Butyrylcholinesterase (change in absorbance per minute) [1]: 7.1 ± 0.22 ΔmAbs/minute | hydrolysis rate with Acetylcholinesterase (change in absorbance per minute) [2]: 29 ± 0.24 ΔmAbs/minute | spontaneous hydrolysis rate (change in absorbance per minute) [3]: 0.48 ± 0.020 ΔmAbs/minute

CC(=O)SCC1CCN(C)CC1 [Compound (1a), 1-methylpiperidin-4-ylmethyl acetyl sulfide]
hydrolysis rate with butyrylcholinesterase compared with spontaneous hydrolysis in the buffer solution [1]: did not show any significant difference | hydrolysis rate with Butyrylcholinesterase (change in absorbance per minute) [1]: 0.47 ± 0.026 ΔmAbs/minute | specificity for acetylcholinesterase [2]: extremely highly specific | reaction order of the hydrolysis rate (time dependence) [2]: consistent with the zero-order reaction | substrate quality for acetylcholinesterase [2]: good substrates for acetylcholinesterase | change in absorbance at 412 nm with time [2]: approximately 0.4 Abs | hydrolysis rate with Acetylcholinesterase (change in absorbance per minute) [2]: 3.7 ± 0.098 ΔmAbs/minute | spontaneous hydrolysis rate (change in absorbance per minute) [3]: 0.47 ± 0.0096 ΔmAbs/minute
